Data set [1] deals with HCT-116. As to the kind of experiment: In vitro cytotoxicity (GI50), colon/colorectal cell line. In kind it is cell-based. As to the method: (§1) The in vitro cytotoxicity was measured in the following cell lines: NCI-H460 (ATCC #HTB-177) (non-small cell lung), HCT-116 (ATCC #CCL-247) (colorectal), HL-60 (ATCC #CCL-240) (leukemia), and MDA-MB-231 (ATCC #HTB-26) (breast).
Data set [2] deals with L1210. As to the kind of experiment: In vitro cytotoxicity, leukemia cell line L1210. The following applies: read-out: In vitro cytotoxicity, Leukemia L1210; Table 3.
In data set [3] the test system is MDA-MB-231. Kind of data set: In vitro cytotoxicity (GI50), breast cancer cell line. The format is cell-based. As to the method: as §1
The test system of data set [4] is NCI-H460. As to the kind of experiment: In vitro cytotoxicity (GI50), non-small cell lung cell line. In kind it is cell-based. As to the method: as §1
Data set [5] has as its system various tumor cells lines, both solid and hematologic. As to the kind of experiment: Cytotoxicity against various tumor cell lines (overall comparison). In kind it is cell-based.
For data set [6] the test system is unchanged. To be noted: available data; cited from earlier work.
The test system of data set [7] is myelodysplatic syndrome (MDS). To be noted: treated patients with MDS; cited from earlier work.
For data set [8] the following is noted: following subcutaneous administration; cited from earlier work.
Data set [9] addresses cytidine deaminase (Homo sapiens, UniProt P32320). To be noted: deamination of the base to inactive uracil; cited from earlier work.
Data set [10] deals with L1210.
The subject of data set [11] is DNA methyltransferase (DNMT). As to the kind of experiment: In vitro DNA methyltransferase inhibition in HCT-116 cells (EpiQuick kit). The format is cell-based. As to the method:
The assay was performed using the EpiQuick DNA Methyltransferase Activity/Inhibition Assay Kit (Epigentek, Brooklyn, N.Y.). The […] cells were incubated with 1 μM and 10 μM concentrations of each drug for a period of 24 hours.

Where two headings read alike, the source gives them in different places.

Chain of cytidine deaminase (P32320 whole entry, species assumed): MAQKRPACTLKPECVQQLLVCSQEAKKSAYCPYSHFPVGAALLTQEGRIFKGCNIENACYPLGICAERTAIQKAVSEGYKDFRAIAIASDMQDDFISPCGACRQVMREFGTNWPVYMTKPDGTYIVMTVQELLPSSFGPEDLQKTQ

As to `O=c1ncccn1[C@@H]1O[C@H](CO)[C@@H](O)C1(F)F` [NUC019, 2′-deoxy-2′,2′-difluorozebularine], the IC50 in data set [1] (Table 3, read-out: In vitro cytotoxicity, Colon HCT-116) turned out to be 310 µM; in data set [2] it was 321 µM; in data set [3] (Table 3, read-out: In vitro cytotoxicity, Breast MDA-MB-231), 166 µM; in data set [4] (Table 3, read-out: In vitro cytotoxicity, NSCL NCI-H460) it was 136 µM.
In the case of `NC1=NC(=O)N([C@@H]2O[C@H](CO)[C@@H](O)C2(F)F)CN1` [NUC014, 2′,2′-difluoro-5,6-dihydro-5-azadeoxycytidine], the “Cytotoxicity profile (in words)” value in data set [5] is “less cytotoxic than NUC013”.
For the compound `NC1=NC(=O)N([C@H]2C[C@H](O)[C@@H](CO)O2)CN1` [DHADC, 5,6-dihydro-5-aza-2′-deoxycytidine], in data set [6], the “Cytotoxicity compared to decitabine” value is given as “lesser cytotoxicity”.
On to `Nc1ncn([C@@H]2O[C@H](CO)[C@@H](O)[C@H]2O)c(=O)n1` [Azacytidine, 5-azacytidine], for which the “Remissions or clinical improvements” value in data set [7] is listed as “remissions or clinical improvements in more than half of the treated patients”.
`Nc1ncn([C@H]2C[C@H](O)[C@@H](CO)O2)c(=O)n1` [Decitabine, 5-azadeoxycytidine]: the Half-life in data set [8] is 30 min. Besides, in data set [7], the “Remissions or clinical improvements” value was “remissions or clinical improvements in more than half of the treated patients”. Further, in data set [9], the “Substrate for cytidine deaminase” value is given as “good substrates for cytidine deaminase”.
For `O=c1ncccn1[C@H]1O[C@H](CO)[C@@H](O)C1(F)F` [NUC020], the IC50 worked out at 346 µM in data set [10], 279 µM in [1], 213 µM in data set [3] and 136 µM in [4].
Regarding `Nc1ncn([C@@H]2O[C@H](CO)[C@@H](O)C2(F)F)c(=O)n1` [NUC013, 2′,2′-difluoro-5-azadeoxycytidine], the “Cytotoxicity profile (in words)” value in data set [5] was “active against cell lines that are resistant to decitabine”. The “DNA methyltransferase inhibition (conclusion in words)” value in data set [11] is listed as “is an inhibitor of DNA methyltransferase”.

The values are drawn from patent US9493500B2, “Fluorinated pyrimidine analogs and methods of use thereof” (priority 2012, dated 2016).
